Measurements published in PubChem BioAssay AID330 (DTP/NCI, 2004).
Values joined by “and” are separate entries in the source; they are usually repeats but may differ in a detail not shown here. Equal entries are not always repeated. Inconclusive results and toxic doses are left out.

Test system: P388 leukemia ip, CD2F1 mice, survival T/C
Assay: NCI In Vivo Anticancer Drug Screen. Data for tumor model P388 Leukemia (intraperitoneal) in CD2F1 (CDF1) mice
Conditions: endpoint: median survival time, higher = longer survival
Summary of the method: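 Mice carrying the transplanted tumor received test compound or vehicle. Survival was recorded in each group, and the value is the treated-group measurement divided by that of the vehicle-treated control group.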

[1] = dose: 50.0 mg/kg/injection, schedule: Q01DX005 (ip), vehicle: saline with Tween-80
[2] = dose: 100.0 mg/kg/injection, schedule: Q01DX005 (ip), vehicle: saline with Tween-80
[3] = dose: 50.0 mg/kg/injection, schedule: Q01DX009 (ip), vehicle: saline with Tween-80
[4] = dose: 100.0 mg/kg/injection, schedule: Q01DX009 (ip), vehicle: saline with Tween-80
[5] = dose: 200.0 mg/kg/injection, schedule: Q01DX009 (ip), vehicle: saline with Tween-80
[6] = dose: 50.0 mg/kg/injection, schedule: Q01DX009 (ip), vehicle: Klucel (hydroxypropylcellulose) (HPC)
[7] = dose: 100.0 mg/kg/injection, schedule: Q01DX009 (ip), vehicle: Klucel (hydroxypropylcellulose) (HPC)
[8] = dose: 200.0 mg/kg/injection, schedule: Q01DX009 (ip), vehicle: Klucel (hydroxypropylcellulose) (HPC)
[9] = dose: 50.0 mg/kg/injection, schedule: Q01DX009 (ip), vehicle: saline
[10] = dose: 100.0 mg/kg/injection, schedule: Q01DX009 (ip), vehicle: saline
[11] = dose: 25.0 mg/kg/injection, schedule: Q01DX009 (ip), vehicle: saline with Tween-80

CC[C@](O)(C(=O)O)c1cc2n(c(=O)c1CO)Cc1cc3ccccc3nc1-2
T/C (dose: 0.5 mg/kg/injection, schedule: Q01DX009 (ip), vehicle: saline with Tween-80): 118 % of control
T/C (dose: 0.5 mg/kg/injection, schedule: Q01DX009 (ip), vehicle: water): 120 % of control
T/C (dose: 1.57 mg/kg/injection, schedule: Q04DX003 (ip), vehicle: other): 116 % of control and 119 % of control
T/C (dose: 2.0 mg/kg/injection, schedule: Q01DX009 (ip), vehicle: saline sonified): 163 % of control
T/C (dose: 2.0 mg/kg/injection, schedule: Q01DX009 (ip), vehicle: saline with Tween-80): 159 % of control
T/C (dose: 2.0 mg/kg/injection, schedule: Q01DX009 (ip), vehicle: water): 158 % of control
T/C (dose: 2.5 mg/kg/injection, schedule: Q04DX003 (ip), vehicle: water): 120 % of control
T/C (dose: 4.0 mg/kg/injection, schedule: Q01DX009 (ip), vehicle: saline sonified): 100 % of control
T/C (dose: 4.0 mg/kg/injection, schedule: Q01DX009 (ip), vehicle: saline with Tween-80): 195 % of control
T/C (dose: 4.0 mg/kg/injection, schedule: Q01DX009 (ip), vehicle: water): 207 % of control
T/C (dose: 5.0 mg/kg/injection, schedule: Q04DX003 (ip), vehicle: water): 111 % of control
T/C (dose: 6.25 mg/kg/injection, schedule: Q04DX003 (ip), vehicle: other): 156 % of control and 159 % of control
T/C (dose: 6.25 mg/kg/injection, schedule: Q04DX003 (ip), vehicle: water): 154 % of control
T/C (dose: 8.0 mg/kg/injection, schedule: Q01DX009 (ip), vehicle: water): 100 % of control
T/C (dose: 9.72 mg/kg/injection, schedule: Q04DX002 (ip), vehicle: saline): 108 % of control
T/C (dose: 10.0 mg/kg/injection, schedule: Q04DX003 (ip), vehicle: water): 155 % of control
T/C (dose: 10.8 mg/kg/injection, schedule: Q04DX002 (ip), vehicle: saline): 160 % of control
T/C (dose: 12.5 mg/kg/injection, schedule: Q04DX003 (ip), vehicle: other): 106 % of control and 113 % of control
T/C (dose: 13.0 mg/kg/injection, schedule: Q04DX003 (ip), vehicle: saline): 185 % of control
T/C (dose: 18.0 mg/kg/injection, schedule: Q04DX002 (ip), vehicle: saline): 159 % of control
T/C (dose: 20.0 mg/kg/injection, schedule: Q04DX003 (ip), vehicle: water): 178 % of control and 220 % of control
T/C (dose: 21.6 mg/kg/injection, schedule: Q04DX003 (ip), vehicle: saline): 217 % of control
T/C (dose: 25.0 mg/kg/injection, schedule: Q04DX003 (ip), vehicle: other): 98 % of control and 90 % of control
T/C (dose: 25.0 mg/kg/injection, schedule: Q04DX003 (ip), vehicle: water): 154 % of control
T/C (dose: 30.0 mg/kg/injection, schedule: Q04DX002 (ip), vehicle: saline): 177 % of control
T/C (dose: 36.0 mg/kg/injection, schedule: Q04DX003 (ip), vehicle: saline): 233 % of control
T/C (dose: 40.0 mg/kg/injection, schedule: Q04DX003 (ip), vehicle: water): 212 % of control and 94 % of control
T/C (dose: 45.0 mg/kg/injection, schedule: Q04DX002 (ip), vehicle: saline): 157 % of control and 196 % of control
T/C (dose: 50.0 mg/kg/injection, schedule: Q04DX002 (ip), vehicle: saline): 183 % of control
T/C (dose: 60.0 mg/kg/injection, schedule: Q04DX003 (ip), vehicle: saline): 93 % of control
T/C (dose: 83.3 mg/kg/injection, schedule: Q04DX002 (ip), vehicle: saline): 91 % of control
T/C (dose: 128.0 mg/kg/injection, schedule: Q04DX003 (ip), vehicle: saline): 58 % of control

Cc1nc2ccccc2n(CC2CCCN3CCCC[C@H]23)c1=O (stereo not given in full)
T/C [1]: 97 % of control
T/C [2]: 101 % of control

CCC[CH2][Sn]1([CH2]CCC)[O]C2C(OC)OC3COC(c4ccccc4)OC3C2[O]1 (stereo not given)
T/C (dose: 12.5 mg/kg/injection, schedule: Q04DX003 (ip), vehicle: saline): 105 % of control
T/C (dose: 25.0 mg/kg/injection, schedule: Q04DX003 (ip), vehicle: saline): 110 % of control
T/C (dose: 50.0 mg/kg/injection, schedule: Q04DX003 (ip), vehicle: saline): 112 % of control

CC(C)(C)C(=O)CC(Cc1nccc2ccccc12)c1ccccc1 (stereo not given)
T/C [3]: 106 % of control
T/C [4]: 104 % of control
T/C [5]: 103 % of control

O=C(CC(NO)c1ccccc1)NO (stereo not given)
T/C [6]: 99 % of control
T/C [7]: 105 % of control
T/C [8]: 115 % of control

O=C1c2ccncc2C(=O)c2c1[nH]c1ccccc21
T/C (dose: 7.5 mg/kg/injection, schedule: Q04DX002 (ip), vehicle: Klucel (hydroxypropylcellulose) (HPC)): 97 % of control
T/C (dose: 15.0 mg/kg/injection, schedule: Q04DX002 (ip), vehicle: Klucel (hydroxypropylcellulose) (HPC)): 95 % of control
T/C (dose: 30.0 mg/kg/injection, schedule: Q04DX002 (ip), vehicle: Klucel (hydroxypropylcellulose) (HPC)): 90 % of control and 97 % of control
T/C (dose: 60.0 mg/kg/injection, schedule: Q04DX002 (ip), vehicle: Klucel (hydroxypropylcellulose) (HPC)): 95 % of control

Nc1nnc(-c2ccc(Cl)c(Cl)c2)o1
T/C (dose: 100.0 mg/kg/injection, schedule: Q04DX003 (ip), vehicle: Klucel (hydroxypropylcellulose) (HPC)): 100 % of control
T/C (dose: 200.0 mg/kg/injection, schedule: Q04DX003 (ip), vehicle: Klucel (hydroxypropylcellulose) (HPC)): 105 % of control
T/C (dose: 400.0 mg/kg/injection, schedule: Q04DX003 (ip), vehicle: Klucel (hydroxypropylcellulose) (HPC)): 115 % of control

COc1c(Cl)c2c(c(OC)c1OC)-c1ccc(OC)c(=O)cc1C(NC(C)=O)CC2 (stereo not given)
T/C (dose: 0.78 mg/kg/injection, schedule: Q01DX009 (ip), vehicle: Klucel (hydroxypropylcellulose) (HPC)): 151 % of control
T/C (dose: 1.56 mg/kg/injection, schedule: Q01DX009 (ip), vehicle: Klucel (hydroxypropylcellulose) (HPC)): 179 % of control and 188 % of control
T/C (dose: 3.12 mg/kg/injection, schedule: Q01DX009 (ip), vehicle: Klucel (hydroxypropylcellulose) (HPC)): 199 % of control

O=C(Nc1ccc(Nc2ccncc2)cc1)c1ccc(N2C(=O)c3ccccc3C2=O)cc1[N+](=O)[O-]
T/C [3]: 98 % of control
T/C [4]: 95 % of control
T/C [5]: 95 % of control

CN(C)N=Nc1ccc(C(N)=O)cc1
T/C (dose: 12.5 mg/kg/injection, schedule: Q01DX009 (ip), vehicle: saline): 101 % of control and 103 % of control and 93 % of control
T/C (dose: 25.0 mg/kg/injection, schedule: Q01DX009 (ip), vehicle: saline): 98 % of control and 99 % of control and 100 % of control
T/C [9]: 98 % of control and 107 % of control and 91 % of control
T/C [10]: 111 % of control and 96 % of control

OC(c1cc2ccc(C(F)(F)F)cc2c2cc(C(F)(F)F)ccc12)C1CCCCN1 (stereo not given)
T/C (dose: 12.5 mg/kg/injection, schedule: Q01DX009 (ip), vehicle: saline with Tween-80): 102 % of control and 107 % of control
T/C [11]: 100 % of control and 102 % of control

C(=C1/SC(c2ccccc2)=NC1c1ccccc1)/c1ccccc1 (stereo not given)
T/C [3]: 92 % of control
T/C [4]: 88 % of control
T/C [5]: 96 % of control

CC1=NN(c2ccccc2)C/C1=N\O
T/C (dose: 50.0 mg/kg/injection, schedule: Q01DX005 (ip), vehicle: Klucel (hydroxypropylcellulose) (HPC)): 103 % of control
T/C (dose: 100.0 mg/kg/injection, schedule: Q01DX005 (ip), vehicle: Klucel (hydroxypropylcellulose) (HPC)): 102 % of control

O=C1C=CC(=Nc2ccc3[nH]c4ccccc4c3c2)C=C1
T/C [1]: 101 % of control and 92 % of control and 96 % of control
T/C [2]: 104 % of control and 93 % of control and 96 % of control
T/C (dose: 200.0 mg/kg/injection, schedule: Q01DX005 (ip), vehicle: saline with Tween-80): 108 % of control and 121 % of control and 96 % of control
T/C (dose: 400.0 mg/kg/injection, schedule: Q01DX005 (ip), vehicle: saline with Tween-80): 108 % of control

O=C(c1ccccc1)C(F)(F)C(F)(F)F
T/C [11]: 107 % of control
T/C [3]: 109 % of control
T/C [4]: 110 % of control
T/C [5]: 109 % of control

CCN(CC)CCOC(=O)c1ccc(NC(=S)Nc2ccccc2)cc1
T/C [1]: 98 % of control
T/C [2]: 90 % of control

NC(=O)c1[nH]c(/N=N/c2nc[nH]c2C(N)=O)nc1N
T/C [6]: 99 % of control
T/C [7]: 99 % of control
T/C [8]: 93 % of control

NCCC1C2CC3CC(C2)CC1C3 (stereo not given)
T/C [9]: 88 % of control
T/C [10]: 88 % of control

O=C(/C=C/c1ccccc1)c1c2ccccc2cc2ccccc12
T/C (dose: 100.0 mg/kg/injection, schedule: Q01DX001 (ip), vehicle: saline with Tween-80): 107 % of control
T/C (dose: 200.0 mg/kg/injection, schedule: Q01DX001 (ip), vehicle: saline with Tween-80): 100 % of control
T/C (dose: 400.0 mg/kg/injection, schedule: Q01DX001 (ip), vehicle: saline with Tween-80): 91 % of control
